Experimental data reported in patent US4346075A, “Antibiotic DC-11 and process for production thereof” (Kyowa Hakko Kogyo Co., Ltd., priority 1980, dated 1982).
Converted amounts (≈) assume the structure as drawn.

What was measured:
solubility = type: physicochemical
Escherichia coli ATCC 26 = experiment: in vitro antibacterial spectrum, disc method (pH 8.0); type: cell-based; details: ATCC26, Escherichia coli ATCC 26, disc method, read-out: Minimum Inhibitory Concentration (MIC)
Excerpt: (§1) The in vitro antibacterial spectra of DC-11 determined by the disc method (pH 8.0) is illustrated in the following Table 4.

[1] = system: Klebsiella pneumoniae ATCC 10031; experiment: as above; type: cell-based; details: ATCC10031, Klebsiella pneumoniae ATCC 10031, disc method, read-out: Minimum Inhibitory Concentration (MIC)
Excerpt: as §1

[2] = system: Staphylococcus aureus ATCC 6538 P; experiment: as above; type: cell-based; details: ATCC6538, read-out: Minimum Inhibitory Concentration (MIC)
Excerpt: as §1

[3] = system: Shigella sonnei ATCC 9290; experiment: as above; type: cell-based; details: ATCC9290, Shigella sonnei ATCC 9290, disc method, read-out: Minimum Inhibitory Concentration (MIC)
Excerpt: as §1

[4] = system: Salmonella typhosa ATCC 9992; experiment: as above; type: cell-based; details: Salmonella enterica, pH 8, read-out: Minimum Inhibitory Concentration (MIC)
Excerpt: as §1

[5] = system: Bacillus subtilis No. 10707; experiment: as above; type: cell-based; details: Bacillus subtilis No. 10707, disc method, read-out: Minimum Inhibitory Concentration (MIC)
Excerpt: as §1

[6] = acute toxicity, intraperitoneal, mice; details: mouse, in vivo, ip, intraperitoneally
[7] = system: Sarcoma 180 ascites tumor; experiment: effect on sarcoma 180 ascites tumor; type: in vivo, male ddY-strain mice; details: seven days after implantation
Description: Six male ddY-strain mice having a weight of 20 g are used for each group as test animals; and 5×10^6 cells of Sarcoma 180 ascites tumor are implanted in the animals. After 24 hours following implantation, 0.2 ml phosphate buffered saline (PBS) containing DC-11 in various concentrations is administered intraperitoneally. PBS comprises 0.8 g/dl NaCl, 0.02 g/dl KCl, […] Na2 HPO4, 0.02 g/dl KH2 PO4 (pH 7.2).
For comparison, 0.2 ml PBS solution containing mitomycin C is administered to a group of amimals intraperitoneally at the same time as the test compound.
Seven days after implantation, the average tumor volume (mm^3) and T/C (T: average tumor volume of test compound, C: that of control) are determined.

[8] = system: Lymphocytic leukemia P-388 tumor; experiment: effect on Lymphocytic leukemia P-388 tumor; type: in vivo, male CDF1 mice; details: 24 hours following implantation
Description: Five male CDF1 mice having a weight of about 22 g are used for each group as test animals, and 1×10^6 cells of Lymphocytic leukemia P-388 tumor are implanted intraperitoneally in the test animals. Twenty-fours hours following implantation, 0.2 ml PBS solution containing DC-11 in various concentrations is administered intraperitoneally.
For comparison, 0.2 ml PBS solution containing mitomycin C is administered to a group of test animals intraperitoneally at the same time as the test compound.
The average survival period (ASP: days) and T/C (T: average survival days of the groups administered with test compound, C: average survival days of the control group) after implantation are shown in the following Table 6.

For `COC(=O)NC1C(C)OC(OC2CC=C(C)C3C=CC4C(OC5CC(OC6CCC(OC7CC(O)C(OC8CCC(O)C(C)O8)C(C)O7)C(C)O6)C(OC(C)=O)C(C)O5)C(C)CC(C)C4C3(C)C(=O)C3=C(O)C4(CC(C=O)=CC(O)C4C=C2C)OC3=O)CC1(C)[N+](=O)[O-]` (centres unmarked) [DC-11], the Solubility (solubility; benzene and water) was “slightly soluble”, the Solubility (solubility; ethylether, petroleum ether and n-hexane) was “insoluble” and the Solubility (solubility; methanol, ethanol, butanol, acetone, ethyl acetate and chloroform) was “soluble”. For the same compound, the MIC (Escherichia coli ATCC 26) was greater than 100 µg/mL, the MIC [1] was greater than 100 µg/mL and the MIC [2] was 20 µg/mL (≈ 15.2 µM). It also gave an MIC [3] greater than 100 µg/mL, an MIC [4] greater than 100 µg/mL and an MIC [5] of 0.1 µg/mL (≈ 0.0761 µM). The LD50 [6] was 54 mg/kg, the “T/C (average tumor volume of test compound / control)” value ([7]; 25 mg/Kg i.p.) was 0.78 and the “V: average tumor volume” value ([7]; 25 mg/Kg i.p.) was 1096 mm^3. The “T/C (average tumor volume of test compound / control)” value ([7]; 50 mg/Kg i.p.) was 0.52, the “V: average tumor volume” value ([7]; 50 mg/Kg i.p.) was 730 mm^3 and the “T/C (average tumor volume of test compound / control)” value ([7]; 70 mg/Kg i.p.) was 0.42. The “V: average tumor volume” value ([7]; 70 mg/Kg i.p.) was 590 mm^3, the “T/C (average survival days, test group / control group)” value ([8]; 6.25 mg/Kg i.p.) was 1.20 and the “average survival period (ASP)” value ([8]; 6.25 mg/Kg i.p.) was 11.2 days. For the same compound, the “T/C (average survival days, test group / control group)” value ([8]; 12.5 mg/Kg i.p.) was 1.43, the “average survival period (ASP)” value ([8]; 12.5 mg/Kg i.p.) was 13.4 days and the “T/C (average survival days, test group / control group)” value ([8]; 25.0 mg/Kg i.p.) was 1.38. The “average survival period (ASP)” value ([8]; 25.0 mg/Kg i.p.) was 13.0 days.
With `CO[C@@]12[C@H](COC(N)=O)C3=C(C(=O)C(C)=C(N)C3=O)N1C[C@@H]1N[C@@H]12` [Mitomycin C, mitomycin C, reference compound] the “T/C (average tumor volume of test compound / control)” value ([7]; 4.2 mg/Kg i.p.) was 0.32, the “V: average tumor volume” value ([7]; 4.2 mg/Kg i.p.) was 450 mm^3 and the “T/C (average survival days, test group / control group)” value ([8]; 4.2 mg/Kg i.p.) was 1.51. For the same compound, the “average survival period (ASP)” value ([8]; 4.2 mg/Kg i.p.) was 14.2 days.
